From patent US20180271863A1, “TARGETING P2 PURINERGIC RECEPTORS TO TREAT HEPATOCELLULAR CARCINOMA (HCC)” (Baylor College of Medicine, priority 2015, published 2018) come the findings set out here.

Holding throughout (type): cell-based, human
Assay [1] deals with Huh7 cells. Description: Western blotting of cyclin and CDK proteins in Huh7 cells. How it is done:
(§1) Normal human primary hepatocytes isolated from healthy adults (no known history of HCC) in suspension or freshly-frozen prior to shipment (Cryoport Systems, CA) were purchased from Triangle Research Labs, NC. Fresh hepatocytes were plated on collagen-coated tissue culture plates or glass coverslips in Williams E complete media with additives (10% fetal bovine serum, 2 mM glutamine, […] insulin, 4 ng/ml glucagon, […] transferrin, 2.5 ng/ml sodium selenite, 10,000 U/ml penicillin, […] streptomycin, 50 g/ml gentamycin) for 3 h to ensure hepatocyte adherence to plates. Subsequently, hepatocytes were maintained in Williams E minimal media free from serum and growth factors for 24 h prior to treatment. Human hepatocellular carcinoma derived Huh7, and Hep3B, were cultured in Minimum Essential Medium Eagle (MEM); SNU-387 was cultured in Roswell Park Memorial Institute (RPMI) medium and PLC/PRF/5 cultured in Dulbecco's Modified Eagle's medium (DMEM). All maintenance culture media were supplemented with 10% fetal bovine serum (FBS), L-Glutamine (2 mM), penicillin (100 units/ml) and streptomycin ([…]) at 37° C. and 5% CO2. Cells were maintained in serum free media (containing 2 mM L-Glutamine, 100 units/ml penicillin and ([…])) streptomycin for 24 h prior to treatment.
Total protein extracts were obtained by homogenizing cells in total lysis buffer (50 mM Tris-HCl, pH 7.5, 0.5 M NaCl, 2 mM EGTA, 2 mM EDTA, 1.0% Triton X-100, 0.25% Deoxycholate, 1 m/ml pepstatin, 1.0 m/ml leupeptin, 1.0 m/ml aprotinin, 1.0 mM phenylmethylsulfonyl fluoride, 1.0 mM Dithiothreitol, 2.0 mM activated Na3VO4, and 2.0 mM NaF) and centrifuging at 14,000 rpm for 10 min (4° C.). Equal amounts of total proteins as determined by BCA protein Assay (Pierce, Rockford, Ill.) were analyzed by Western blotting. Blots were probed with antibody specific for a-tubulin or GAPDH to ensure equal loading of proteins in each lane.
Background: In western blotting, separated proteins are transferred to a membrane and probed.

Assay [2] deals with Huh7 cells. In words: Western blotting for hippo pathway phosphorylation (Mst1/2, LATS, Yap) in Huh7 cells. How it is done:
Total protein extracts were obtained by homogenizing cells in total lysis buffer and analyzed by Western blotting as described recently (Oncotarget 2015; 6:41162-41179). […] Therefore, Applicants performed in vitro studies to test whether activation of P2 purinergic receptors may affect the hippo pathway and its downstream effectors. Huh7 cells—human derived hepatocellular carcinoma cells—maintained in serum free media for 24 hours—were treated with P2 purinergic receptor agonists. […] ADP treatment alone was also sufficient to induce LATs phosphorylation (2 h-1.7 fold, 4 h-1.5 fold) (FIG. 20B). […] Hippo kinases Mst1/2 and Lats1/2 work through a phosphorylation cascade to phosphorylate Yap, thereby retaining Yap in the cytoplasm. In spite of nucleotide-mediated Mst1/2 and Lats phosphorylation, ATP, ADP and ATPγS treatment was individually insufficient to induce Yap phosphorylation. […] Similarly, ATP treatment alone increased nuclear YAP protein expression (1.7 fold) (FIG. 20D).

The test system of assay [3] is Huh7 cells. In words: qRT-PCR of YAP target genes in Huh7 cells. An excerpt: Total RNA was isolated from human livers or cells and was amplified by qRT-PCR as described recently (Oncotarget 2015; 6:41162-41179). Next, Applicants tested whether extracellular nucleotide treatment may have an effect on YAP target genes important in hepatocellular carcinoma. […] Moreover, P2X3 antagonist (AF-353) pretreatment attenuated ATP mediated induction of survivin (FIG. 20G).

The test system of assay [4] is Huh7 cells. In words: qRT-PCR of cyclin mRNA in Huh7 cells. How it is done: Normal human primary hepatocytes isolated from healthy adults (no known history of HCC) in suspension or freshly-frozen prior to shipment (Cryoport Systems, CA) were purchased from Triangle Research Labs, NC. Fresh hepatocytes were plated on collagen-coated tissue culture plates or glass coverslips in Williams E complete media with additives (10% fetal bovine serum, 2 mM glutamine, […] insulin, 4 ng/ml glucagon, […] transferrin, 2.5 ng/ml sodium selenite, 10,000 U/ml penicillin, […] streptomycin, 50 g/ml gentamycin) for 3 h to ensure hepatocyte adherence to plates. Subsequently, hepatocytes were maintained in Williams E minimal media free from serum and growth factors for 24 h prior to treatment. Human hepatocellular carcinoma derived Huh7, and Hep3B, were cultured in Minimum Essential Medium Eagle (MEM); SNU-387 was cultured in Roswell Park Memorial Institute (RPMI) medium and PLC/PRF/5 cultured in Dulbecco's Modified Eagle's medium (DMEM). All maintenance culture media were supplemented with 10% fetal bovine serum (FBS), L-Glutamine (2 mM), penicillin (100 units/ml) and streptomycin ([…]) at 37° C. and 5% CO2. Cells were maintained in serum free media (containing 2 mM L-Glutamine, 100 units/ml penicillin and ([…])) streptomycin for 24 h prior to treatment. Total RNA was isolated from human livers or cells using Trizol Reagent according to manufacturer's instructions (Invitrogen, NY). Complementary DNA (cDNA) synthesis was performed by reverse transcription of total RNA (2 μg) with high capacity cDNA reverse transcription kit (Applied Biosystems, Foster city, CA). The cDNA product was amplified by qRT-PCR in Step One Plus Real-Time PCR system using SYBR Green PCR Master Mix (Applied Biosystems, Grand Island, N.Y.). Quantitative expression values were determined using the […] as specified by manufacturers using GAPDH as a control.
(Real-time PCR tracks product formation cycle by cycle.)

Assay [5] deals with Huh7 cells. Description: BrdU incorporation (proliferation) in Huh7 cells. Particulars: nucleotide 100 μM. How it is done:
To determine whether P2 purinergic receptor activation influences HCC cell proliferation, BrdU incorporation was assessed in HCC cells maintained in SFM for 24 hours and treated with ATP for 24 hours. ATP treatment alone was sufficient to induce proliferation in each of these cell lines (Huh7, 34%; Hep3B, 46%; SNU-387, 47% and PLC/PRF/5, 24%), identifying nucleotides as liver cancer cell mitogens (FIG. 7A).
Extracellular ATP can be hydrolyzed to ADP and adenosine by ectonucleotidases at the plasma membrane. Therefore, Applicants tested the effects of ATPγS (non-hydrolyzable analog of ATP) or ADP (break down product of ATP) (100 μM) on Huh7 cell proliferation. ATPγS treatment alone was sufficient to induce BrdU incorporation as early as 12 hours (42%); maintained at 18 h (30%) and 24 h (29%) in Huh7 cells (FIG. 8). ADP was also able to independently increase the number of BrdU positive nuclei (12 h, 30%; 18 h, 35%; 24 h, 37%) (FIG. 8). Furthermore, ATP treatment (18 h) increased cell proliferation and viability in all four cell lines, as determined by MTT assay (Huh7, 65%; Hep3B, 81%; SNU-387, 90% and PLC/PRF/5, 43%) (FIG. 7B).
as §1
Formalin-fixed and paraffin embedded liver sections from HCC patients were analyzed by immunohistochemistry with anti-P2X3 antibody (Abcam, Cambridge, Mass.). HCC cells were grown on glass coverslips; BrdU (10 μM, Roche, Indianapolis, Ind.) was added to culture media for 1 h prior to fixation (cold acetone:methanol, 1:1) and stained using anti-BrdU antibody (DAKO, Carpinteria, Calif.) and DAB Peroxidase Substrate Kit (Vector Labs, Burlingame, Calif.), according to manufacturer's instructions. Counterstaining was done with hematoxylin. BrdU positive cells were counted and expressed as a percentage of the total number of cells in ten randomly selected high-power fields (20×) per coverslips.
For orientation: Dividing cells build labelled thymidine or BrdU into new DNA.

In the case of `CSc1nc(N)c2ncn([C@@H]3O[C@H](COP(=O)(O)OP(=O)(O)OP(=O)(O)O)[C@@H](O)[C@H]3O)c2n1` [2-MeSATP], in assay [1] (2MeSATP 50 μM alone, 24 h), the “cyclin D3 expression” value is listed as 1.9 fold.
Turning to `O=C(O)c1cc(C(=O)O)c(C(=O)N(Cc2cccc(Oc3ccccc3)c2)[C@H]2CCCc3ccccc32)cc1C(=O)O` [A317491], the “effect on ATP induced cyclin D3 expression” value in assay [1] (A317491 30 μM pre-treatment, ATP 24 h) is on record as “attenuated”.
Consider `Nc1ncnc2c1ncn2[C@@H]1O[C@H](COP(=O)(O)OP(=O)(O)O)[C@@H](O)[C@H]1O` [ADP], for which, in assay [2] (Huh7, 12 h treatment), the Yap phosphorylation came out at 0.2 fold and the “induction of Yap phosphorylation” value is given as “insufficient”. Besides, in assay [3] (24 h treatment), the AREG gene expression was determined as 2.6 fold, the CTGF gene expression came to 2.5 fold, the Sox9 gene expression is recorded as 1.4 fold and the “cyclin E gene expression” value amounted to 2.4 fold. This compound registered a survivin gene expression in assay [3] (24 h treatment) of 1.4 fold. Besides, in assay [4] (12 h treatment), the “Cyclin D3 mRNA expression vs untreated cells” value came to 2.7 fold. Also, the “Cyclin D3 mRNA expression vs untreated cells” value in assay [4] (36 h treatment) was determined as 2.8 fold. Further, in assay [5] (12 h), the “BrdU incorporation / BrdU positive nuclei” value worked out at 30%. Moreover, in assay [5] (18 h), the “BrdU incorporation / BrdU positive nuclei” value amounted to 35%. In assay [5] (24 h), the “BrdU incorporation / BrdU positive nuclei” value stood at 37%.
Regarding `Cc1nc(N=Nc2ccc(S(=O)(=O)O)cc2S(=O)(=O)O)c(COP(=O)(O)O)c(C=O)c1O` [PPADS], the “effect on ATPγS-induced AREG and CTGF expression” value in assay [3] (ATPγS ± PPADS, 24 h) was “completely attenuated”.
For the compound `Cc1ccc(C(=O)Nc2ccc(S(=O)(=O)O)c3cc(S(=O)(=O)O)cc(S(=O)(=O)O)c23)cc1NC(=O)c1cccc(NC(=O)Nc2cccc(C(=O)Nc3cc(C(=O)Nc4ccc(S(=O)(=O)O)c5cc(S(=O)(=O)O)cc(S(=O)(=O)O)c45)ccc3C)c2)c1` [Suramin], the “effect on nucleotide induction of cyclin D3 mRNA” value in assay [4] (Suramin pre-treatment (30 minutes) before 24 hours nucleotide treatment) is given as “dose dependent attenuation”. Besides, the “effect on baseline cyclin D3 expression” value in assay [4] (Suramin treatment alone) is “reduced”.
Take `O=c1ccn([C@@H]2O[C@H](COP(=O)(O)OP(=O)(O)OP(=O)(O)O)[C@@H](O)[C@H]2O)c(=O)[nH]1` [UTP]: the Mst1/2 phosphorylation result in assay [2] (Huh7, serum free 24 hours, as early as 5 minutes, sustained at 4 hours) is on record as “significantly induced”.
